Measurements from the CheMixHub viscosity set.

Experiment: xn = mol fraction of the nth substance listed

CCCCCCCC(=O)O + CCCCCCCCCCCC(=O)O
100 kPa, x2 = 0.25
Conditions | viscosity [mPa·s]
293.15 K | 8.223
298.15 K | 7.085
303.15 K | 6.158
308.15 K | 5.394
313.15 K | 4.759
318.15 K | 4.227
323.15 K | 3.777

CCCOC(=O)c1ccccc1 + CCCCCCCCCCCCCC
101 kPa
Conditions | viscosity [mPa·s]
298.15 K, x2 = 0.0348 | 2.302
298.15 K, x2 = 0.0666 | 2.257
298.15 K, x2 = 0.0955 | 2.215
298.15 K, x2 = 0.1309 | 2.171
298.15 K, x2 = 0.1608 | 2.137
298.15 K, x2 = 0.1965 | 2.099
298.15 K, x2 = 0.2367 | 2.06
298.15 K, x2 = 0.2722 | 2.029
298.15 K, x2 = 0.307 | 2.003
298.15 K, x2 = 0.3527 | 1.974
298.15 K, x2 = 0.401 | 1.948
298.15 K, x2 = 0.4477 | 1.928
298.15 K, x2 = 0.4973 | 1.916
298.15 K, x2 = 0.549 | 1.906
298.15 K, x2 = 0.5955 | 1.905
298.15 K, x2 = 0.6516 | 1.908
298.15 K, x2 = 0.7159 | 1.921
298.15 K, x2 = 0.7647 | 1.934
298.15 K, x2 = 0.8531 | 1.97
308.15 K, x2 = 0.0488 | 1.84
308.15 K, x2 = 0.0735 | 1.808
308.15 K, x2 = 0.1091 | 1.77
308.15 K, x2 = 0.148 | 1.734
308.15 K, x2 = 0.1734 | 1.714
308.15 K, x2 = 0.215 | 1.682
308.15 K, x2 = 0.2514 | 1.659
308.15 K, x2 = 0.2896 | 1.639
308.15 K, x2 = 0.3376 | 1.62
308.15 K, x2 = 0.3703 | 1.608
308.15 K, x2 = 0.4154 | 1.596
308.15 K, x2 = 0.4616 | 1.587
308.15 K, x2 = 0.5232 | 1.58
308.15 K, x2 = 0.572 | 1.58
308.15 K, x2 = 0.6124 | 1.582
308.15 K, x2 = 0.6769 | 1.588
308.15 K, x2 = 0.7367 | 1.601
308.15 K, x2 = 0.8128 | 1.623
308.15 K, x2 = 0.8907 | 1.652
318.15 K, x2 = 0.0558 | 1.521
318.15 K, x2 = 0.0578 | 1.517
318.15 K, x2 = 0.0908 | 1.491
318.15 K, x2 = 0.1258 | 1.464
318.15 K, x2 = 0.159 | 1.442
318.15 K, x2 = 0.1985 | 1.418
318.15 K, x2 = 0.2344 | 1.399
318.15 K, x2 = 0.2777 | 1.379
318.15 K, x2 = 0.3162 | 1.364
318.15 K, x2 = 0.3637 | 1.348
318.15 K, x2 = 0.4065 | 1.337
318.15 K, x2 = 0.4576 | 1.328
318.15 K, x2 = 0.5191 | 1.321
318.15 K, x2 = 0.5622 | 1.319
318.15 K, x2 = 0.6149 | 1.32
318.15 K, x2 = 0.68 | 1.325
318.15 K, x2 = 0.7358 | 1.332
318.15 K, x2 = 0.8096 | 1.347
318.15 K, x2 = 0.9298 | 1.382

CC(C)c1ccccc1 + CCCCCCCCCCCCCCCC
viscosity [mPa·s], 100 kPa
Conditions | x2 = 0.0536 | x2 = 0.1093 | x2 = 0.2207 | x2 = 0.2969 | x2 = 0.4217 | x2 = 0.5376 | x2 = 0.6083 | x2 = 0.7347 | x2 = 0.823 | x2 = 0.8933
298.15 K | 0.834 | 0.921 | 1.117 | 1.249 | 1.525 | 1.815 | 2.002 | 2.356 | 2.602 | 2.783
308.15 K | 0.77 | 0.846 | 1.018 | 1.136 | 1.348 | 1.561 | 1.687 | 1.932 | 2.098 | 2.236
318.15 K | 0.688 | 0.76 | 0.904 | 1.003 | 1.176 | 1.34 | 1.444 | 1.629 | 1.756 | 1.859
